{"source": "BigSolDB 2.1"}
{"smiles": "O=C(NC(Cc1cc(=O)[nH]c2ccccc12)C(=O)O)c1ccc(Cl)cc1", "note": "(stereo not given)", "values": [{"measurement": "solubility (mole fraction)", "setting": "in PEG-400, 288.15 K", "result": 0.00236}, {"measurement": "solubility (mole fraction)", "setting": "in PEG-400, 293.15 K", "result": 0.0025}, {"measurement": "solubility (mole fraction)", "setting": "in PEG-400, 298.15 K", "result": 0.00264}, {"measurement": "solubility (mole fraction)", "setting": "in PEG-400, 303.15 K", "result": 0.00278}, {"measurement": "solubility (mole fraction)", "setting": "in PEG-400, 308.15 K", "result": 0.00292}, {"measurement": "solubility (mole fraction)", "setting": "in acetone, 288.15 K", "result": "1.01e-05"}, {"measurement": "solubility (mole fraction)", "setting": "in acetone, 293.15 K", "result": "1.2e-05"}, {"measurement": "solubility (mole fraction)", "setting": "in acetone, 298.15 K", "result": "1.43e-05"}, {"measurement": "solubility (mole fraction)", "setting": "in acetone, 303.15 K", "result": "1.7e-05"}, {"measurement": "solubility (mole fraction)", "setting": "in acetone, 308.15 K", "result": "2e-05"}, {"measurement": "solubility (mole fraction)", "setting": "in acetonitrile, 288.15 K", "result": "8.25e-07"}, {"measurement": "solubility (mole fraction)", "setting": "in acetonitrile, 293.15 K", "result": "1.07e-06"}, {"measurement": "solubility (mole fraction)", "setting": "in acetonitrile, 298.15 K", "result": "1.38e-06"}, {"measurement": "solubility (mole fraction)", "setting": "in acetonitrile, 303.15 K", "result": "1.74e-06"}, {"measurement": "solubility (mole fraction)", "setting": "in acetonitrile, 308.15 K", "result": "2.2e-06"}, {"measurement": "solubility (mole fraction)", "setting": "in ethanol, 288.15 K", "result": "7.58e-05"}, {"measurement": "solubility (mole fraction)", "setting": "in ethanol, 293.15 K", "result": "8.61e-05"}, {"measurement": "solubility (mole fraction)", "setting": "in ethanol, 298.15 K", "result": "9.68e-05"}, {"measurement": "solubility (mole fraction)", "setting": "in ethanol, 303.15 K", "result": 0.000109}, {"measurement": "solubility (mole fraction)", "setting": "in ethanol, 308.15 K", "result": 0.000122}, {"measurement": "solubility (mole fraction)", "setting": "in ethyl acetate, 288.15 K", "result": "1.91e-06"}, {"measurement": "solubility (mole fraction)", "setting": "in ethyl acetate, 293.15 K", "result": "2.21e-06"}, {"measurement": "solubility (mole fraction)", "setting": "in ethyl acetate, 298.15 K", "result": "2.56e-06"}, {"measurement": "solubility (mole fraction)", "setting": "in ethyl acetate, 303.15 K", "result": "2.94e-06"}, {"measurement": "solubility (mole fraction)", "setting": "in ethyl acetate, 308.15 K", "result": "3.38e-06"}, {"measurement": "solubility (mole fraction)", "setting": "in glycerin, 288.15 K", "result": "2.97e-06"}, {"measurement": "solubility (mole fraction)", "setting": "in glycerin, 293.15 K", "result": "3.45e-06"}, {"measurement": "solubility (mole fraction)", "setting": "in glycerin, 298.15 K", "result": "4.02e-06"}, {"measurement": "solubility (mole fraction)", "setting": "in glycerin, 303.15 K", "result": "4.63e-06"}, {"measurement": "solubility (mole fraction)", "setting": "in glycerin, 308.15 K", "result": "5.35e-06"}, {"measurement": "solubility (mole fraction)", "setting": "in isopropanol, 288.15 K", "result": "3.82e-05"}, {"measurement": "solubility (mole fraction)", "setting": "in isopropanol, 293.15 K", "result": "4.75e-05"}, {"measurement": "solubility (mole fraction)", "setting": "in isopropanol, 298.15 K", "result": "5.83e-05"}, {"measurement": "solubility (mole fraction)", "setting": "in isopropanol, 303.15 K", "result": "7.17e-05"}, {"measurement": "solubility (mole fraction)", "setting": "in isopropanol, 308.15 K", "result": "8.79e-05"}, {"measurement": "solubility (mole fraction)", "setting": "in methanol, 288.15 K", "result": "7.56e-05"}, {"measurement": "solubility (mole fraction)", "setting": "in methanol, 293.15 K", "result": "8.55e-05"}, {"measurement": "solubility (mole fraction)", "setting": "in methanol, 298.15 K", "result": "9.59e-05"}, {"measurement": "solubility (mole fraction)", "setting": "in methanol, 303.15 K", "result": 0.000107}, {"measurement": "solubility (mole fraction)", "setting": "in methanol, 308.15 K", "result": 0.00012}, {"measurement": "solubility (mole fraction)", "setting": "in n-butanol, 288.15 K", "result": "5.47e-05"}, {"measurement": "solubility (mole fraction)", "setting": "in n-butanol, 293.15 K", "result": "6.51e-05"}, {"measurement": "solubility (mole fraction)", "setting": "in n-butanol, 298.15 K", "result": "7.73e-05"}, {"measurement": "solubility (mole fraction)", "setting": "in n-butanol, 303.15 K", "result": "9.12e-05"}, {"measurement": "solubility (mole fraction)", "setting": "in n-butanol, 308.15 K", "result": 0.000107}, {"measurement": "solubility (mole fraction)", "setting": "in n-propanol, 288.15 K", "result": "6.1e-05"}, {"measurement": "solubility (mole fraction)", "setting": "in n-propanol, 293.15 K", "result": "7.1e-05"}, {"measurement": "solubility (mole fraction)", "setting": "in n-propanol, 298.15 K", "result": "8.24e-05"}, {"measurement": "solubility (mole fraction)", "setting": "in n-propanol, 303.15 K", "result": "9.55e-05"}, {"measurement": "solubility (mole fraction)", "setting": "in n-propanol, 308.15 K", "result": 0.000109}, {"measurement": "solubility (mole fraction)", "setting": "in propylene glycol, 288.15 K", "result": 0.000204}, {"measurement": "solubility (mole fraction)", "setting": "in propylene glycol, 293.15 K", "result": 0.000224}, {"measurement": "solubility (mole fraction)", "setting": "in propylene glycol, 298.15 K", "result": 0.000246}, {"measurement": "solubility (mole fraction)", "setting": "in propylene glycol, 303.15 K", "result": 0.000268}, {"measurement": "solubility (mole fraction)", "setting": "in propylene glycol, 308.15 K", "result": 0.000291}, {"measurement": "solubility (mole fraction)", "setting": "in water, 288.15 K", "result": "5.17e-07"}, {"measurement": "solubility (mole fraction)", "setting": "in water, 293.15 K", "result": "6.74e-07"}, {"measurement": "solubility (mole fraction)", "setting": "in water, 298.15 K", "result": "8.69e-07"}, {"measurement": "solubility (mole fraction)", "setting": "in water, 303.15 K", "result": "1.12e-06"}, {"measurement": "solubility (mole fraction)", "setting": "in water, 308.15 K", "result": "1.43e-06"}]}
